Results published in patent US10815232B2, “Crystalline forms of viral-protein inhibitor drug VX-787, processes for preparation thereof and use thereof” (Crystal Pharmaceutical (Suzhou) Co., Ltd., priority 2017, dated 2020).
Values after ≈ are worked out from the molar mass of the structure shown. “Also recorded” adds a separate entry of the source. Structures can show the parent of a compound that is named as a salt.

Columns and labels:
[1] = Storage stability of crystalline forms (XRPD, HPLC); assay type: physicochemical; settings: for purities after storage: all storage conditions tested for the form; for Purity after storage: initial purity 99.24%
Method: The hydrochloride Form CS1 prepared by the present disclosure was stored under 25° C./60% RH and 40° C./75% RH for 1 month. The crystalline forms were checked by XRPD before and after storing.
Three samples of hydrochloride Form CS3 prepared by the present disclosure were stored in open dishes under conditions of 25° C./60% RH, 40° C./75% RH for 1 month, and 60° C./75% relative humidity for 2 weeks. The crystalline forms and the chemical purities were checked by XRPD and HPLC before and after storing.
Three samples of hydrochloride Form CS4 prepared by the present disclosure were stored in open dishes under conditions of 25° C./60% RH for two weeks, 40° C./75% RH for 1 month, and 60° C./75% relative humidity for 2 weeks. The crystalline forms and the chemical purities were checked by XRPD and HPLC respectively before and after storing.
[…] The crystalline forms and chemical purities were checked by HPLC and XRPD before and after storing.

[2] = Mechanical stability (grinding, XRPD); assay type: physicochemical; settings: ground in an agate mortar for about 2 minutes
Method: About 10 mg of hydrochloride Form CS1 of the present disclosure was taken and ground in an agate mortar for about 2 minutes.

[3] = Dynamic solubility in FaSSIF and FeSSIF (Example 22); assay type: physicochemical
Method: The crystallite form CS3 of compound I of the present disclosure and free form Form A in CN105849100A are prepared into saturated solutions in pH-5.0 FeSSIF (Fed state simulated intestinal fluids) and pH=6.5 FaSSIF (Fasted state simulated intestinal fluids). The content of the sample in the saturated solution was determined by high performance liquid chromatography (HPLC) after equlibrated for 1, 4 and 24 hours.

[4] = Phase I studies; cited from earlier work
[5] = test system: influenza virus infection; settings: Completed Phase IIa studies; cited from earlier work
[6] = Dynamic solubility, saturated solution in pure water (Example 17); assay type: physicochemical; settings: for Solubility: pure water
Method: Hydrochloride Form CS4 of the present disclosure and hydrochloride Form A in CN105849100A were prepared into saturated solution in pure water. The content of the sample in the saturated solution was determined by high performance liquid chromatography (HPLC) after 1, 4 and 24 hours. The solubility data of hydrochloride Form CS4 of the present disclosure and hydrochloride Form A in CN105849100A are shown in Table 12.

[7] = Dynamic solubility in water (Example 11); assay type: physicochemical
Method: 12 mg of hydrochloride Form CS3 prepared in the present disclosure and the hydrochloride Form A in CN105849100A were accurately weighed and placed in vials, followed by adding 1.2 mL of water. The samples were rotated at 30 rpm on a rotator and sampled at 1 hour, 4 hours, and 24 hours. After centrifugation with 0.45 urn polytetrafluoroethylene (PTFE) filters, the filtrates were collected for HPLC analysis.

[8] = 25° C./60% RH, Five months, open dish
[9] = 40° C./75% RH, Five months, open dish

O=C(O)[C@H]1C2CCC(CC2)[C@@H]1Nc1nc(-c2c[nH]c3ncc(F)cc23)ncc1F [Hydrochloride Form CS1]
time for which the form is stable ([1]; 25° C./60% RH): at least 1 months
Change of crystalline form ([1]; 25° C./60% RH, One month): Unchanged
time for which the form is stable ([1]; 25° C./60% RH, listed as hydrochloride Form CS1): at least 1 months
time for which the form is stable ([1]; 40° C./75% RH): at least 1 month
Change of crystalline form ([1]; 40° C./75% RH, One month): Unchanged
time for which the form is stable ([1]; 40° C./75% RH, listed as hydrochloride Form CS1): at least 1 month
purities after storage [1]: above 98%
crystalline form change after grinding [2]: no form change is observed; also recorded: No crystalline form change

O=C(O)[C@H]1C2CCC(CC2)[C@@H]1Nc1nc(-c2c[nH]c3ncc(F)cc23)ncc1F [Form CS3 of Compound I]
Solubility FaSSIF ([3]; FaSSIF pH=6.5, 1 hour): 110 µg/mL (≈ 275 µM)
Solubility FaSSIF ([3]; FaSSIF pH=6.5, 4 hours): 210 µg/mL (≈ 526 µM)
Solubility FaSSIF ([3]; FaSSIF pH=6.5, 24 hours): 200 µg/mL (≈ 501 µM)
solubility, times higher than Form A in CN105849100A ([3]; FaSSIF, 1, 4 and 24 hours): 6-16 times
Solubility FeSSIF ([3]; FeSSIF pH 5.0, 1 hour): 210 µg/mL (≈ 526 µM)
Solubility FeSSIF ([3]; FeSSIF pH 5.0, 4 hours): 290 µg/mL (≈ 726 µM)
Solubility FeSSIF ([3]; FeSSIF pH 5.0, 24 hours): 250 µg/mL (≈ 626 µM)
solubility, times higher than Form A in CN105849100A ([3]; FeSSIF, 1, 4 and 24 hours): 4-11 times
Change of crystalline form [1, 8]: Five months Unchanged
Purity after storage [1, 8]: 99.28%
time for which the form is stable ([1]; 25° C./60% RH, listed as Crystalline form CS3 of compound I): at least 5 months
time for which the form is stable ([1]; 25° C./60% RH, listed as crystalline form CS3 of compound I): at least 5 months
Change of crystalline form [1, 9]: Five months Unchanged
Purity after storage [1, 9]: 99.26%
time for which the form is stable ([1]; 40° C./75% RH, listed as Crystalline form CS3 of compound I): at least 5 month
time for which the form is stable ([1]; 40° C./75% RH, listed as crystalline form CS3 of compound I): at least 5 month

O=C(O)[C@H]1C2CCC(CC2)[C@@H]1Nc1nc(-c2c[nH]c3ncc(F)cc23)ncc1F [Free Form Form A in CN105849100A, reference compound]
Solubility FaSSIF ([3]; FaSSIF pH=6.5, 1 hour): 7 µg/mL (≈ 17.5 µM)
Solubility FaSSIF ([3]; FaSSIF pH=6.5, 4 hours): 13 µg/mL (≈ 32.5 µM)
Solubility FaSSIF ([3]; FaSSIF pH=6.5, 24 hours): 31 µg/mL (≈ 77.6 µM)
Solubility FeSSIF ([3]; FeSSIF pH 5.0, 1 hour): 18 µg/mL (≈ 45.1 µM)
Solubility FeSSIF ([3]; FeSSIF pH 5.0, 4 hours): 30 µg/mL (≈ 75.1 µM)
Solubility FeSSIF ([3]; FeSSIF pH 5.0, 24 hours): 57 µg/mL (≈ 143 µM)

O=C(O)[C@H]1C2CCC(CC2)[C@@H]1Nc1nc(-c2c[nH]c3ncc(F)cc23)ncc1F [VX-787, (2S,3S)-3-((5-Huoro-2-(5-fluoro-1.171-pyrrolo[2,3-b]pyridin-3-yl)pyrimidin-4-yl)amino) bicyclo[2.2.2]octane-2-carboxylic acid]
tolerance [4]: good tolerance
virological and clinical evaluation of influenza virus infection [5]: statistical significance

O=C(O)[C@H]1C2CCC(CC2)[C@@H]1Nc1nc(-c2c[nH]c3ncc(F)cc23)ncc1F [Hydrochloride Form CS4]
Solubility ([6]; 1 hour): 85 µg/mL
Solubility ([6]; 4 hours): 75 µg/mL
Solubility ([6]; 24 hours): 94 µg/mL
solubility, times higher than hydrochloride Form A of CN105849100A ([6]; water, after 1, 4 and 24 hours): 38-283 times
Change of crystalline form ([1]; 25° C./60% RH, Two weeks, open dish): Unchanged
time for which the form is stable ([1]; 25° C./60% RH, listed as hydrochloride Form CS4): at least 2 weeks
time for which the form is stable ([1]; 40° C./75% RH, listed as hydrochloride Form CS4): at least 1 month
purities after storage [1]: above 98%

O=C(O)[C@H]1C2CCC(CC2)[C@@H]1Nc1nc(-c2c[nH]c3ncc(F)cc23)ncc1F [Hydrochloride Form CS3]
Solubility ([7]; 1 hour): 2.5 µg/mL
Solubility ([7]; 4 hours): 46.0 µg/mL
Solubility ([7]; 24 hours): 15.0 µg/mL
solubility, times higher than hydrochloride Form A in CN105849100A ([7]; after 1, 4 and 24 hours): 6-51 times
Change of crystalline form ([1]; 25° C./60% RH, Seven months, open dish): Unchanged
time for which the form is stable ([1]; 25° C./60% RH, listed as hydrochloride Form CS3): at least 7 months
time for which the form is stable ([1]; 40° C./75% RH, listed as hydrochloride Form CS3): at least 1 month
time for which the form is stable ([1]; 60° C./75% RH): at least 2 weeks
Change of crystalline form ([1]; 60° C./75% RH, Two weeks, open dish): Unchanged
purities after storage [1]: above 98%

O=C(O)[C@H]1C2CCC(CC2)[C@@H]1Nc1nc(-c2c[nH]c3ncc(F)cc23)ncc1F [Hydrochloride Form A in CN105849100A, reference compound]
Solubility ([7]; 1 hour): 0.3 µg/mL
Solubility ([7]; 4 hours): 0.9 µg/mL
Solubility ([7]; 24 hours): 2.5 µg/mL
Solubility ([6]; 1 hour): 0.3 µg/mL
Solubility ([6]; 4 hours): 0.9 µg/mL
Solubility ([6]; 24 hours): 2.5 µg/mL
